Source: ChEMBL document CHEMBL1938317, “Structure-based de novo design and biochemical evaluation of novel BRAF kinase inhibitors” (Bioorg Med Chem Lett, 2012)

Target: Serine/threonine-protein kinase B-raf (Homo sapiens, UniProt P15056)
Sequence (P15056 whole entry): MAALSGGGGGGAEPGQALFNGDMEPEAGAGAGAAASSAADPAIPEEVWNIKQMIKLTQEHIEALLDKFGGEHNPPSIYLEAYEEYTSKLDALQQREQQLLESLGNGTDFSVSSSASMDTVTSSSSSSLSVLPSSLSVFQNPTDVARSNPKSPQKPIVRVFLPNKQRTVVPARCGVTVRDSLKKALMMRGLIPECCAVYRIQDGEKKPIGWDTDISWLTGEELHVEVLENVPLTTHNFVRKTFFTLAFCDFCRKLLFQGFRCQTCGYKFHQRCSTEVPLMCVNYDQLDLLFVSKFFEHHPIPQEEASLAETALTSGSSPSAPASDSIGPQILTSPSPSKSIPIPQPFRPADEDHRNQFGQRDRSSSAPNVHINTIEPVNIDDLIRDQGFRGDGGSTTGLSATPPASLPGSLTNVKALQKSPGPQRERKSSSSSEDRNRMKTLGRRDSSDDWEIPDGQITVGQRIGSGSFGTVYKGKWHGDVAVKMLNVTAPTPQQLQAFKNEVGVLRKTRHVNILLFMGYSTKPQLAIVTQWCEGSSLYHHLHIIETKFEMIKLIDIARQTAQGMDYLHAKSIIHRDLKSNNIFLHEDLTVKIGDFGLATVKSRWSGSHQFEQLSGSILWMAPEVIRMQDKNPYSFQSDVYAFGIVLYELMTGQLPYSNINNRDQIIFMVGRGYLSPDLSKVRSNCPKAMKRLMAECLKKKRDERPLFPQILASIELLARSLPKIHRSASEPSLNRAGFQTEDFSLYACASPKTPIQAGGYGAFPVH
Description: Inhibition of BRAF by high-throughput assay

Row | Kd [µM] | Structure (SMILES)
1 | 2 | Nc1nc(Nc2ccccc2O)c2[nH]cnc2n1
2 | 3.7 | COc1ccc(Nc2nncc3c(-c4ccc(O)cc4)cccc23)cc1
3 | 4.7 | Cc1ccc(Nc2nncc3c(-c4ccc(O)cc4)cccc23)cc1
4 | 0.79 | CC(=O)Nc1ccc(Nc2ncnc3nc[nH]c23)cc1
5 | 9.6 | CN(C)C(=O)Cc1ccc(-c2cccc3c(Nc4cccc(O)c4)nncc23)cc1
6 | 4.7 | NS(=O)(=O)c1ccc(Nc2nncc3c(-c4ccc(O)cc4)cccc23)cc1
7 | 1.7 | Nc1nc(Nc2cccc(C(F)(F)F)c2)c2[nH]cnc2n1
8 | 4.1 | COc1cc(Nc2nc(N)nc3nc[nH]c23)cc(OC)c1OC
9 | 5.2 | c1nc2c(Nc3ccc4c(c3)OCCO4)nc(Nc3ccc4c(c3)OCCO4)nc2[nH]1
10 | 2.5 | NC(=O)COc1ccc(Nc2nncc3c(-c4ccc(O)cc4)cccc23)cc1
11 | 2.2 | Nc1nc(Nc2cccc(Br)c2)c2[nH]cnc2n1
12 | 5.1 | Oc1ccc(-c2cccc3c(Nc4cccc(O)c4)nncc23)cc1
13 | 9.4 | O=C(O)c1ccc(Nc2ncnc3nc[nH]c23)cc1
14 | 3.1 | COc1cc(Nc2nc(N)nc3[nH]cnc23)cc(OC)c1
15 | 4.8 | Nc1nc(Nc2cccc(F)c2)c2[nH]cnc2n1
16 | 5.8 | Nc1nc(Nc2cccc(O)c2)c2[nH]cnc2n1
17 | 3 | Nc1nc(Nc2cccc(Cl)c2)c2nc[nH]c2n1
18 | 3.2 | Nc1nc(Nc2ccc(F)c(Cl)c2)c2nc[nH]c2n1
19 | 3.6 | Nc1nc(Nc2ccc(Cl)c(Cl)c2)c2nc[nH]c2n1
20 | 2.8 | CCC(=O)c1cccc(Nc2nc(N)nc3nc[nH]c23)c1
21 | 5.1 | COc1ccc(Nc2nc(N)nc3[nH]cnc23)cc1OC
22 | 8 | NC(=O)Cc1ccc(Nc2nncc3c(-c4ccc(O)cc4)cccc23)cc1
